Entries after “also recorded” stand apart in the source; their conditions may differ. Starred links: 1 amine or outer side, 2 acyl side, 3 side chain; linkers in the order of their positions; H or OH if unused. Positions of bridges follow the written chain, without caps; N, C: chain ends. Non-standard residues stand in square brackets, D forms with d. Residues, ends and D or L forms follow the SMILES beside them. No end group written: not given here. X2 = O=C([C@@H]1CSC(c2nccc(N[*:1])n2)=N1)[*:2]; Abu = CC[C@H](N)C(=O)O
How the values were obtained:
[1] = molecular target: T1, ZNRF3 extracellular domain (ZNRF3-ECD) (Homo sapiens, UniProt Q9ULT6); test: Phage selection against ZNRF3-ECD, NGS enrichment, mCAmCP-cyclized library; assay type: binding
T1 construct: The ZNRF3 ECD was expressed and characterized exactly as previously described; SUMO (N, cleaved yes); made in house; host or cells: E. coli BL21, co-expressing BirA
T1 sequence (Q9ULT6 56-219 limits assumed): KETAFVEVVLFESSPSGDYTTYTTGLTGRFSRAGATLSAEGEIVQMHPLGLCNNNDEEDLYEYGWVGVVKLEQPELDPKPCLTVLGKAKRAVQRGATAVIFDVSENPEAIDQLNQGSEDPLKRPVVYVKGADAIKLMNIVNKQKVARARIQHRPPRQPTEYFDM
Text: In addition to simply ensuring the cyclization potential on phage, we also looked to investigate the selection differences using two different linkers to macrocyclize the same initial peptide library. ZNRF3 is a membrane protein that contains an intracellular E3 ligase domain and has previously shown potential in promoting degradation of oncogenic membrane proteins, such as PDL1.[32] ZNRF3 also plays a major role in the regulation of the Wnt signaling cascade, which can modulate a variety of cell processes related to oncogenesis and cell differentiation.[33]−[36] […] Because it has an extracellular domain that can be easily accessible to macrocyclic peptides, we envisioned that a selection against the extracellular domain for ZNRF3 (ZNRF3-ECD) would afford peptides that could potentially be used in the development of proteolysis-targeting chimeras (PROTACs) for a variety of membrane proteins. We expressed and characterized a biotinylated ZNRF3-ECD using an Avi-Tag on the […] to facilitate the selection using streptavidin magnetic beads, as has been previously described (Figure S20).[38] […] To avoid the potential for enriching peptides that bind to the streptavidin resin, we alternated loading the protein using streptavidin and NHS-functionalized magnetic beads for the first three rounds of selection (Figure 5).
The purified phage library (10^11 to 10^12 cfu) in binding buffer was incubated with 1 mM TCEP at 37 °C. After 30 min, the linker (pCAmCP or mCAmCP, 10 mM in DMSO) was added to a final concentration of 100 μM. The solution was incubated for 24 h at RT with slow rotation. The library was then directly used for affinity selection without further purification.
Streptavidin-coated magnetic beads (100 μL, 50% slurry, Cytiva Sera-Mag) were transferred to a 1.5 mL tube, washed three times with 1 mL of binding buffer (10 mM HEPES, 150 mM NaCl, 10 mM MgCl2, and 1 mM KCl, pH 7.4), resuspended in 100 μL of binding buffer, and split into two tubes. […]

[2] = molecular target: T1, ZNRF3 extracellular domain (ZNRF3-ECD); test: Biolayer interferometry (BLI) binding to immobilized biotinylated ZNRF3-ECD; settings: pH 7.5, dissociation over 5 min
Method: The ZNRF3 ECD was expressed and characterized exactly as previously described.[38] Plasmid pET28a-SUMO-ZNRF3-Avi was cotransformed into E. coli (BL21) along with a plasmid expressing BirA. The cells were then inoculated into 2× YT containing 50 μg/mL kanamycin and 34 μg/mL chloramphenicol and grown at 37 °C until OD = 0.5. Expression was then induced by the addition of 1 mM IPTG and 50 μM biotin, and then the protein was expressed for 18 h at 16 °C. The cells were then pelleted (3750g, 15 min) and then resuspended in buffer A (50 mM Tris-HCl, 10% glycerol, 150 mM NaCl, and 25 mM imidazole, pH 7.5, 20 mL/liter of expression). The cells were then lysed by sonication (1 s on, 1 s off, 5 min, 60% A, repeated once), and the lysate was clarified by centrifugation (25,000g, 20 min). The supernatant was then incubated with a Ni-NTA column for 45 min at 4 °C. The column was then washed with 5 CV of buffer A before being eluted using 2 CV of buffer B (buffer A + 240 mM imidazole). The elution was then concentrated using an Amicon centrifugal filter before being desalted into buffer A on a HiPrep 26/10 column. The SUMO tag was then cleaved by the addition of 30 μg/mL SUMO protease and incubation for 48 h at 4 °C. The protein was then loaded onto a second Ni-NTA column for 45 min at 4 °C, and the flowthrough was collected and concentrated to 1 mL by centrifugation. Pure protein was then isolated using size exclusion chromatography (HiLoad 16/600, Superdex 75 pg) in buffer C (50 mM Tris-HCl, pH 7.5, 10% (v/v) glycerol, 150 mM NaCl, and 0.5 mM EDTA). Pure protein was stored in storage buffer (50 mM Tris-HCl, pH 7.5, 50% (v/v) glycerol, and 150 mM NaCl) at −80 °C before being used for assays.
Biolayer interferometry (BLI) experiments were performed using streptavidin-coated biosensors (Sartorius Bio) on an Octet R8 biolayer interferometer (Sartorius Bio). All experiments were performed in assay buffer (10 mM HEPES, 150 mM NaCl, and 0.01% Tween 20, pH 7.5). Biotinylated ZNRF3 (28 μg/mL in assay buffer) was loaded onto the sensor to 4 nm of loading over 10 min, and then the sensors were quenched for one min with a 1% BSA solution in assay buffer. Peptides were serially diluted in assay buffer containing 0.8% DMF, and the association and dissociation to ZNRF3 were measured over 3 and 5 min, respectively. Between each experiment, sensors were regenerated using 10 mM glycine, pH 1.5. Binding curves were double-referenced against a protein-only sensor and a parallel unloaded sensor to correct for any nonspecific binding to the sensors. All curves were fit in the Octet Kinetic Analysis program (Sartorius Bio) using a 1:1 protein/ligand binding model.

[3] = Chloroacetamide addition kinetics with N-terminal Abu peptide CGK-5Abu; settings: 500 μM peptide; CGK-5Abu vs CGK-5
Text: While pCAmCP and mCAmCP gave efficient cyclization of the peptide fusion of sfGFP, we looked to further investigate the specificity of the reaction using peptide kinetic assays. To do this, we first established reactivity of the compounds with a model peptide (CGK-5, Figures 3A and S16) that was composed of two cysteines flanking a region tuned for solubility in buffer (GGKGG) and with a tryptophan residue on the C-terminus for UV absorbance. […] To test the specificity of the reaction for the N-terminal cysteine, we synthesized a peptide analogue (CGK-5Abu, Figures 3D–F and S17) that contained 2-aminobutyric acid in place of the N-terminal cysteine. […] Since these reactions occurred at 500 μM of peptide to allow for analysis on the HPLC, we envision this difference will likely be exaggerated when using lower peptide/protein concentrations. Although it is unlikely at neutral pH, the chloroacetamide moiety can possibly react with nucleophilic amino acids other than cysteine. […]
The peptide (CGK-5 or CGK-5Abu, 5 mM stock in water) was diluted to 500 μM in ammonium bicarbonate buffer (50 mM, pH 7.5) containing 1.2 mM TCEP. […] Following dilution with 20 μL of water, the sample was then analyzed on a Shimadzu HPLC with an LCMS-2020 mass spectrometer attached (10–40% ACN gradient in H2O over 6 min, 0.1% formic acid, 1 mL/min flow rate, Shimadzu C18 250 × 4.6 mm, 5 μm). […]

[4] = Solubility observation for synthesized peptides; assay type: physicochemical; settings: observed at synthesis / BLI testing
[5] = molecular target: T2, ZNRF3 extracellular domain (biotinylated) (UniProt Q9ULT6 56-219, biotin (on the Avi-Tag; co-expression with BirA and 50 uM biotin)); test: BLI; biotinylated ZNRF3-ECD loaded on streptavidin biosensors (Octet R8); peptides serially diluted in 10 mM HEPES, 150 mM NaCl, 0.01% Tween 20, pH 7.5 with 0.8% DMF; association 3 min, dissociation 5 min; double-referenced; 1:1 binding model; settings: both partners purified
T2 construct: ZNRF3, extracellular domain; also called ZNRF3-ECD; ZNRF3 ECD; source: E. coli (BL21), co-expressed with BirA, purified (Ni-NTA, SUMO protease, second Ni-NTA, SEC Superdex 75); not shown: Avi-Tag, N-terminal, kept
T2 sequence (looked up): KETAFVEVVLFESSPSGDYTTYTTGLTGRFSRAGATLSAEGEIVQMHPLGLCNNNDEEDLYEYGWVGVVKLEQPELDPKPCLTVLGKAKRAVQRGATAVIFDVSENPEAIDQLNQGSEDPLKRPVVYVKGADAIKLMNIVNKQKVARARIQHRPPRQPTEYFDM

CSCC[C@@H]1NC(=O)[C@H](CC(C)C)NC(=O)[C@H](CC(N)=O)NC(=O)[C@H](CCC(=O)O)NC(=O)[C@H](Cc2c[nH]c3ccccc23)NC(=O)[C@H](CC(N)=O)NC(=O)[C@H](CC(C)C)NC(=O)[C@H](CCCNC(=N)N)NC(=O)[C@H](CC(C)C)NC(=O)[C@H](Cc2ccccc2)NC(=O)[C@@H]2CSC(=N2)c2nccc(n2)NC(=O)CSC[C@@H](C(N)=O)NC(=O)[C@H](Cc2c[nH]c3ccccc23)NC(=O)[C@@H]2CCCN2C1=O [Peptide Z28S1] ({CH2CO}-[X2]FLRLNWENLMPWC-NH2; thioether N-14; C-terminus assumed)
fold enrichment after round 1 ([1]; after round 1): over 32,000 -fold | share of total sequences after round 4 ([1]; round 4, 84,190 total sequences): 81% | off rates (in words) [2]: high off rates; also recorded: extremely quick off rates

[Abu]GGKGGCGW [CGK-5Abu, peptide analogue with 2-aminobutyric acid in place of the N-terminal cysteine]
rate of reaction relative to the cyclization reaction, fold slower [3]: ~3 -fold slower

CELVMMHGYWWRQC (also: sidechain bridge or staple (positions not given here)) [Peptide Z28S2, peptide enriched in the mCAmCP selection]
solubility (in words) [4]: poor solubility during synthesis | fold increase in abundance after round 2 ([1]; after round 2): ~5000 -fold

B1: Z27S1Abu (linear analogue of Z27S1) (peptide)
chain: [Abu]HLSPLEAWRQKL[Abu]
Kd [5]: 2600 nM
